Test results as given in patent US11814444B2, “Cyclic polypeptides for PCSK9 inhibition” (Ra Pharmaceuticals, Inc., priority 2018, dated 2023).
Numbered stars: 1 amine (or outer) side, 2 acyl side, 3 side chain; on linkers, the order of the positions; unused ones are H or OH. Bridge positions count the residues as written; N and C are the ends. Square brackets hold non-standard residues; d marks the D form. Peptide text beside a SMILES is read from it. Phe(4-guanidino) = N=C(N)Nc1ccc(C[C@H](N)C(=O)O)cc1; Trp(7-aza) = N[C@@H](Cc1c[nH]c2ncccc12)C(=O)O; Leu(3R-OH) = CC(C)[C@@H](O)[C@H](N)C(=O)O; X1 = C[C@@](N[*:1])(C(=O)[*:2])c1ccccc1; 1Nal = N[C@@H](Cc1cccc2ccccc12)C(=O)O; Ac4c(3,3-F2) = NC1(C(=O)O)CC(F)(F)C1; mXylylene = c1cc(C[*:1])cc(C[*:2])c1; Val(3-OH) = CC(C)(O)[C@H](N)C(=O)O; Aad = N[C@@H](CCCC(=O)O)C(=O)O; Chg = N[C@H](C(=O)O)C1CCCCC1; PEG4 = NCCOCCOCCOCCOCCC(=O)O; Tle = CC(C)(C)[C@H](N)C(=O)O; αMeV = CC(C)[C@](C)(N)C(=O)O; S5 = C=CCCC[C@](C)(N)C(=O)O; Iva = CC[C@](C)(N)C(=O)O; Nva = CCC[C@H](N)C(=O)O; Ac4c = NC1(C(=O)O)CCC1; Aib = CC(C)(N)C(=O)O; Mpa = O=C(O)CCS

The compounds below were run against human PCSK9 / human LDLR EGFa domain interaction (Homo sapiens, UniProt Q8NBP7) (assay: TR-FRET assay of inhibition of the PCSK9-LDLR protein-protein interaction). Details: 20 nM avitag-biotinylated human PCSK9, 20 nM his-tagged human LDLR EGFa domain, 2 hours, room temperature.
human PCSK9 / human LDLR EGFa domain interaction, sequence (Q8NBP7 153-692): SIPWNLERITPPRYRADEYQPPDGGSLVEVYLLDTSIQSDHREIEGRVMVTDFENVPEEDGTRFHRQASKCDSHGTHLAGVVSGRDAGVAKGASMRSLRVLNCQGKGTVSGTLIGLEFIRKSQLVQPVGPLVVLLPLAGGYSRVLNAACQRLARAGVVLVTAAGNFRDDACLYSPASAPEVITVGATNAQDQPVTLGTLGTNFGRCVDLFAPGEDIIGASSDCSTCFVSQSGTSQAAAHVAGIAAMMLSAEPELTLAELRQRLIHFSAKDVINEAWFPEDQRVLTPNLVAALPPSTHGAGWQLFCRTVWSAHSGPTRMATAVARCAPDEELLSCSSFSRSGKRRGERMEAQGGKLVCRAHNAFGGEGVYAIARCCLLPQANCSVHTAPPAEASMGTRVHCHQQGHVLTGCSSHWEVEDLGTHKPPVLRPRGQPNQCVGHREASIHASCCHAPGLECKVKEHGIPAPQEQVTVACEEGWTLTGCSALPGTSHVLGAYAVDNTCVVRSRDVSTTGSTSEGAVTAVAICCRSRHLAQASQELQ
human PCSK9 / human LDLR EGFa domain interaction, sequence (Q8NBP7 31-152 partner limits assumed): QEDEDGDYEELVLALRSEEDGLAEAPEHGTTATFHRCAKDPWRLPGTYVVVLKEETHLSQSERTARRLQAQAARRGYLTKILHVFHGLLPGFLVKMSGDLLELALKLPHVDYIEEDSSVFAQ
Type: binding
Experimental: A time-resolved fluorescence resonance energy (TR-FRET) assay was used to measure inhibition of the PCSK9-LDLR protein-protein interaction. Briefly, 20 nM avitag-biotinylated human PCSK9 was incubated with 20 nM his-tagged human LDLR EGFa domain in the presence of 5 nM LANCE Ulight Streptavidin (Perkin Elmer) and 5 nM europium-Anti-6×His (Perkin Elmer) for 2 hours covered at room temperature in buffer containing 50 mM HEPES, 150 mM NaCl, 5 mM CaCl2), 0.01% BSA and 0.01% Surfactant P20. Compounds were tested in dose-response and concentrations giving half-maximal inhibition calculated using a 4-parameter fit equation.
`C=CCCC[C@]1(C)NC(=O)[C@H](CCC)NC(=O)[C@H](Cc2ccc(O)cc2)NC(=O)[C@H](C)NC(=O)[C@](C)(CC)NC(=O)[C@H](Cc2c[nH]c3ncccc23)NC(=O)[C@H]([C@@H](C)O)NC(=O)[C@@H]2CCCN2C(=O)[C@H](Cc2ccc(O)cc2)NC(=O)[C@H](C(C)(C)C)NC(=O)[C@@H](NC(C)=O)CCCC(=O)NCCCC[C@@H](C(N)=O)NC1=O` [Compound 050] (Ac-[Aad][Tle]YPT[Trp(7-aza)][Iva]AY[Nva][S5]K-NH2; lactam 1-12) was tested, and the IC50 was 1 to 21 µM. In the case of `CCC[C@H](NC(C)=O)C(=O)N[C@H]1CSCc2cccc(c2)CSC[C@@H](C(N)=O)NC(=O)[C@H]([C@@H](C)O)NC(=O)[C@H](CCC)NC(=O)[C@H](Cc2ccc(O)cc2)NC(=O)[C@H](CCC(=O)O)NC(=O)[C@H](CCC)NC(=O)[C@H](Cc2c[nH]c3ncccc23)NC(=O)[C@H]([C@@H](C)O)NC(=O)[C@@H]2CCCN2C(=O)[C@H](Cc2ccc(O)cc2)NC(=O)[C@H](C(C)(C)C)NC1=O` [Compound 153] (Ac-[Nva]C[Tle]YPT[Trp(7-aza)][Nva]EY[Nva]TC-NH2; linker 2-13 via mXylylene), the IC50 is reported as 0.1 to 1 µM. `CCC[C@@H]1NC(=O)[C@H](Cc2c[nH]c3ncccc23)NC(=O)[C@H]([C@@H](C)O)NC(=O)[C@@H]2CCCN2C(=O)[C@H](Cc2ccc(O)cc2)NC(=O)[C@H](C(C)(C)C)NC(=O)CCSCc2cccc(c2)CSC[C@@H](C(=O)NCCOCCOCCOCCOCCC(N)=O)NC(=O)[C@H]([C@@H](C)O)NC(=O)[C@H](CCC)NC(=O)[C@H](Cc2ccc(O)cc2)NC(=O)[C@H](C)NC1=O` [Compound 163] ([Mpa][Tle]YPT[Trp(7-aza)][Nva]AY[Nva]TC[PEG4]-NH2; linker 1-12 via mXylylene) was tested, and the IC50 was 0.1 to 1 µM. For `CCC[C@@H]1NC(=O)[C@H](Cc2c[nH]c3ncccc23)NC(=O)[C@H](CC(N)=O)NC(=O)[C@H](Cc2c[nH]cn2)NC(=O)[C@H](Cc2ccc(O)cc2)NC(=O)[C@H](C(C)(C)C)NC(=O)CCSCc2cccc(c2)CSC[C@@H](C(N)=O)NC(=O)[C@H]([C@@H](C)O)NC(=O)[C@H](CCC)NC(=O)[C@H](Cc2ccc(O)cc2)NC(=O)[C@H](CCC(=O)O)NC1=O` [Compound 287] ([Mpa][Tle]YHN[Trp(7-aza)][Nva]EY[Nva]TC-NH2; linker 1-12 via mXylylene), the IC50 was 0.1 to 1 µM. For `CCC[C@@H]1NC(=O)[C@H](Cc2c[nH]c3ncccc23)NC(=O)[C@H]([C@@H](C)O)NC(=O)[C@H](Cc2c[nH]cn2)NC(=O)[C@H](Cc2ccc(O)cc2)NC(=O)[C@H](C(C)(C)C)NC(=O)CCSCc2cccc(c2)CSC[C@@H](C(N)=O)NC(=O)[C@H]([C@@H](C)O)NC(=O)[C@H](CCC)NC(=O)[C@H](Cc2ccc(NC(=N)N)cc2)NC(=O)[C@H](CCC(=O)O)NC1=O` [Compound 323] ([Mpa][Tle]YHT[Trp(7-aza)][Nva]E[Phe(4-guanidino)][Nva]TC-NH2; linker 1-12 via mXylylene), the IC50 was 1 to 21 µM. `CCC[C@@H]1NC(=O)[C@H](Cc2c[nH]c3ncccc23)NC(=O)[C@H]([C@@H](C)O)NC(=O)[C@@H]2CCCN2C(=O)[C@H](Cc2ccc(O)cc2)NC(=O)[C@H](C(C)(C)C)NC(=O)[C@@H](NC(C)=O)CCCC(=O)NCCCC[C@H](C(N)=O)NC(=O)[C@H]([C@@H](C)O)NC(=O)[C@](C)(C(C)C)NC(=O)[C@H](Cc2ccc(O)cc2)NC(=O)[C@H](C)NC1=O` [Compound 072] (Ac-[Aad][Tle]YPT[Trp(7-aza)][Nva]AY[αMeV]T[dK]-NH2; lactam 1-12) gave an IC50 of 1 to 21 µM. Work on `C=CCCC[C@]1(C)NC(=O)[C@H](Cc2cccc3ccccc23)NC(=O)[C@H]([C@@H](C)O)NC(=O)[C@@H]2CCCN2C(=O)[C@H](Cc2ccc(O)cc2)NC(=O)[C@H](C(C)(C)C)NC(=O)[C@@H](NC(C)=O)CCCC(=O)NCCCC[C@@H](C(N)=O)NC(=O)[C@](C)(CCCC=C)NC(=O)[C@H](CCC)NC(=O)[C@H](Cc2ccc(O)cc2)NC(=O)[C@H](C)NC1=O` [Compound 044] (Ac-[Aad][Tle]YPT[1Nal][S5]AY[Nva][S5]K-NH2; lactam 1-12) yielded an IC50 of 0.1 to 1 µM. `CCC[C@@H]1NC(=O)[C@H]([C@@H](C)O)NC(=O)[C@@H]2CCCN2C(=O)[C@H](Cc2ccc(O)cc2)NC(=O)[C@H](C(C)(C)C)NC(=O)[C@@H](NC(C)=O)CSCc2cccc(c2)CSC[C@@H](C(N)=O)NC(=O)[C@H]([C@@H](C)O)NC(=O)[C@](C)(C(C)C)NC(=O)[C@H](Cc2ccc(O)cc2)NC(=O)[C@H](C)NC1=O` [Compound 173] (Ac-C[Tle]YPT[Nva]AY[αMeV]TC-NH2; linker 1-11 via mXylylene) gave an IC50 of 0.1 to 1 µM. Compound `CCC[C@@H]1NC(=O)[C@H](Cc2ccc(O)cc2)NC(=O)[C@H](CCC(=O)O)NC(=O)[C@](C)(CC)NC(=O)[C@H](Cc2c[nH]c3ncccc23)NC(=O)[C@H]([C@@H](C)O)NC(=O)[C@H](Cc2c[nH]cn2)NC(=O)[C@H](Cc2ccc(O)cc2)NC(=O)[C@H](C(C)(C)C)NC(=O)CCSCc2cccc(c2)CSC[C@@H](C(N)=O)NC(=O)[C@H]([C@@H](C)O)NC1=O` [Compound 291] ([Mpa][Tle]YHT[Trp(7-aza)][Iva]EY[Nva]TC-NH2; linker 1-12 via mXylylene) has an IC50 of 0.1 to 1 µM. Work on `CCC[C@@H]1NC(=O)[C@H](Cc2c[nH]c3ncccc23)NC(=O)[C@H]([C@@H](C)O)NC(=O)[C@@H]2CCCN2C(=O)[C@H](Cc2ccc(O)cc2)NC(=O)[C@H](C(C)(C)C)NC(=O)CCSCc2cccc(c2)CSC[C@@H](C(N)=O)NC(=O)[C@H]([C@@H](C)O)NC(=O)[C@H](CCC)NC(=O)[C@H](Cc2ccc(O)cc2)NC(=O)[C@H](C)NC1=O` [Compound 157] ([Mpa][Tle]YPT[Trp(7-aza)][Nva]AY[Nva]TC-NH2; linker 1-12 via mXylylene) yielded an IC50 of 0.1 to 1 µM. For `C[C@@H](O)[C@@H]1NC(=O)[C@H](C2CCCCC2)NC(=O)[C@H](Cc2c[nH]c3ncccc23)NC(=O)[C@H](Cc2c[nH]cn2)NC(=O)[C@H](CCC(=O)O)NC(=O)[C@H](Cc2c[nH]c3ncccc23)NC(=O)[C@H]([C@@H](C)O)NC(=O)[C@@H]2CCCN2C(=O)[C@H](Cc2ccc(O)cc2)NC(=O)[C@H](C(C)(C)C)NC(=O)CCSCc2cccc(c2)CSC[C@@H](C(N)=O)NC1=O` [Compound 154] ([Mpa][Tle]YPT[Trp(7-aza)]EH[Trp(7-aza)][Chg]TC-NH2; linker 1-12 via mXylylene), the IC50 was 0.1 to 1 µM. `CCC[C@@H]1NC(=O)[C@H](Cc2ccc(O)cc2)NC(=O)[C@H](C)NC(=O)[C@H](CCC)NC(=O)[C@H](Cc2c[nH]c3ncccc23)NC(=O)[C@H]([C@@H](C)O)NC(=O)[C@@H]2CCCN2C(=O)[C@H](Cc2ccc(O)cc2)NC(=O)[C@H](C(C)(C)C)NC(=O)CCSCc2cccc(c2)CSC[C@@H](C(N)=O)NC(=O)[C@H](C)NC1=O` [Compound 172] ([Mpa][Tle]YPT[Trp(7-aza)][Nva]AY[Nva]AC-NH2; linker 1-12 via mXylylene) was tested, and the IC50 was 1 to 21 µM. Work on `C[C@@H](O)[C@@H]1NC(=O)[C@H](Cc2c[nH]cn2)NC(=O)[C@H](Cc2ccc(O)cc2)NC(=O)[C@H](C(C)(C)C)NC(=O)CCSCc2cccc(c2)CSC[C@@H](C(N)=O)NC(=O)[C@H]([C@@H](C)O)NC(=O)[C@](C)(c2ccccc2)NC(=O)[C@H](Cc2ccc(O)cc2)NC(=O)[C@H](CCC(=O)O)NC(=O)C(C)(C)NC(=O)[C@H](Cc2c[nH]c3ncccc23)NC1=O` [Compound 293] ([Mpa][Tle]YHT[Trp(7-aza)][Aib]EY[X1]TC-NH2; linker 1-12 via mXylylene) yielded an IC50 of 0.001 to 0.1 µM. `CC(=O)N[C@H]1CSCc2cccc(c2)CSC[C@H](C(N)=O)NC(=O)[C@H]([C@@H](C)O)NC(=O)[C@](C)(C(C)C)NC(=O)[C@H](Cc2ccc(O)cc2)NC(=O)[C@H](C)NC(=O)C2(CCC2)NC(=O)[C@H](Cc2c[nH]c3ncccc23)NC(=O)[C@H](C(C)(C)O)NC(=O)[C@@H]2CCCN2C(=O)[C@H](Cc2ccc(O)cc2)NC(=O)[C@H](C(C)(C)C)NC1=O` [Compound 194] (Ac-C[Tle]YP[Val(3-OH)][Trp(7-aza)][Ac4c]AY[αMeV]T[dC]-NH2; linker 1-12 via mXylylene) gave an IC50 of 0.001 to 0.1 µM. Work on `CCC[C@@H]1NC(=O)[C@H](Cc2c[nH]c3ncccc23)NC(=O)[C@H]([C@H](O)C(C)C)NC(=O)[C@H](Cc2c[nH]cn2)NC(=O)[C@H](Cc2ccc(O)cc2)NC(=O)[C@H](C(C)(C)C)NC(=O)CCSCc2cccc(c2)CSC[C@@H](C(N)=O)NC(=O)[C@H]([C@@H](C)O)NC(=O)[C@H](CCC)NC(=O)[C@H](Cc2ccc(O)cc2)NC(=O)[C@H](CCC(=O)O)NC1=O` [Compound 305] ([Mpa][Tle]YH[Leu(3R-OH)][Trp(7-aza)][Nva]EY[Nva]TC-NH2; linker 1-12 via mXylylene) yielded an IC50 of 1 to 21 µM. With `CC(=O)N[C@H]1CSCc2cccc(c2)CSC[C@H](C(N)=O)NC(=O)[C@H]([C@@H](C)O)NC(=O)[C@](C)(C(C)C)NC(=O)[C@H](Cc2ccc(O)cc2)NC(=O)[C@H](C)NC(=O)C2(CC(F)(F)C2)NC(=O)[C@H](Cc2c[nH]c3ncccc23)NC(=O)[C@H]([C@@H](C)O)NC(=O)[C@@H]2CCCN2C(=O)[C@H](Cc2ccc(O)cc2)NC(=O)[C@H](C(C)(C)C)NC1=O` [Compound 195] (Ac-C[Tle]YPT[Trp(7-aza)][Ac4c(3,3-F2)]AY[αMeV]T[dC]-NH2; linker 1-12 via mXylylene) the IC50 was 1 to 21 µM. Compound `CCC[C@@H]1NC(=O)[C@H](Cc2ccc(O)cc2)NC(=O)[C@H](C)NC(=O)[C@@](C)(NC(=O)[C@H](Cc2cccc3ccccc23)NC(=O)[C@@H](NC(=O)[C@@H]2CCCN2C(=O)[C@H](Cc2ccc(O)cc2)NC(=O)[C@@H](NC(C)=O)C(C)(C)C)[C@@H](C)O)CCC/C=C/CCC[C@@](C)(C(N)=O)NC1=O` [Compound 078] (Ac-[Tle]YPT[1Nal][S5]AY[Nva][S5]-NH2; staple (E) 6-10) has an IC50 of 1 to 21 µM. Work on `CCC[C@@H]1NC(=O)[C@H](Cc2ccc(O)cc2)NC(=O)[C@H](C)NC(=O)C(C)(C)NC(=O)[C@H](Cc2c[nH]c3ncccc23)NC(=O)[C@H]([C@@H](C)O)NC(=O)[C@@H]2CCCN2C(=O)[C@H](Cc2ccc(O)cc2)NC(=O)[C@H](C(C)(C)C)NC(=O)[C@@H](NC(C)=O)CCCC(=O)NCCCC[C@@H](C(N)=O)NC(=O)C(C)(C)NC1=O` [Compound 049] (Ac-[Aad][Tle]YPT[Trp(7-aza)][Aib]AY[Nva][Aib]K-NH2; lactam 1-12) yielded an IC50 of 0.1 to 1 µM.
